Several values for one entry are separate records, joined by “and”; a condition that tells them apart may be missing. Equal entries are not always repeated.
Key:
[1] = target: Splicing factor 3B subunit 1 / PHD finger-like domain-containing protein 5A (Homo sapiens, UniProt O75533+Q7RTV0); assay: VEGF-PLAP; conditions: pH 7.8; 4 °C
From the text: Placental alkaline phosphatase (PLAP) reporter assay controlled by VEGF promoter (VEGF-PLAP)

[2] = target: T1, Splicing factor 3B subunit 3 (Homo sapiens, UniProt Q15393); assay: WiDr; conditions: pH 7.8; 4 °C
T1 sequence (Q15393 whole entry): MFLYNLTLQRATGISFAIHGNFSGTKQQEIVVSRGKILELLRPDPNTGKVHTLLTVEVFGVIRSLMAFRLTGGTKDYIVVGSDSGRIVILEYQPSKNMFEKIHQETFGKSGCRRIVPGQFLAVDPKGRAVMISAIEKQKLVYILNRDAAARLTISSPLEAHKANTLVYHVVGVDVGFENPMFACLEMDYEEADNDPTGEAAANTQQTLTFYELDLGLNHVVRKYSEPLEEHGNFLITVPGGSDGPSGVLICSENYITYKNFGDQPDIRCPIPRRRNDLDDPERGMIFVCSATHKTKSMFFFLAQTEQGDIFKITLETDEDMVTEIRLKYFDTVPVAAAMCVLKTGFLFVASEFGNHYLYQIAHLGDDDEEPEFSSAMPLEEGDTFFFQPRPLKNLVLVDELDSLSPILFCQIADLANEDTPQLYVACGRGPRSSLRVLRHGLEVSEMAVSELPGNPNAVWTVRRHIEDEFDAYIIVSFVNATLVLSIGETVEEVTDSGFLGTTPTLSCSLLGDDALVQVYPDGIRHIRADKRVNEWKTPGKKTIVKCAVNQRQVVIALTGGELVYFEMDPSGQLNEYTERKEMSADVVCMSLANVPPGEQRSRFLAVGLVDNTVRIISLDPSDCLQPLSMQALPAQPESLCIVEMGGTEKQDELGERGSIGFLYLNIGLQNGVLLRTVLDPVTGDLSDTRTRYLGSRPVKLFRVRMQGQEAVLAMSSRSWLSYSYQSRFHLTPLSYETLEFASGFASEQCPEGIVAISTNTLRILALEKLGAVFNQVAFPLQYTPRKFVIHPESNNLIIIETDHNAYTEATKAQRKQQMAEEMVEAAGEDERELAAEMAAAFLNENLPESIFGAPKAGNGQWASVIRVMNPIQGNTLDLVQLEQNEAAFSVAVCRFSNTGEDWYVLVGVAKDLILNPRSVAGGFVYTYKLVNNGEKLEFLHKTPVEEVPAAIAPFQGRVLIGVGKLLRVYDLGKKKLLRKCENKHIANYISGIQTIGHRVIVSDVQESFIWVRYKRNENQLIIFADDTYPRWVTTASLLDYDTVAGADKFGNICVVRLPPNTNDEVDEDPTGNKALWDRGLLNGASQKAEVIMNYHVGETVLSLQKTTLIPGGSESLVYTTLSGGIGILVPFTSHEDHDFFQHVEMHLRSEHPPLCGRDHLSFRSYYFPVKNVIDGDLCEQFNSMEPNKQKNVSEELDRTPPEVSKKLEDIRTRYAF
From the text: Cell proliferation assay using WiDr

Splicing factor 3B subunit 1 / PHD finger-like domain-containing protein 5A, sequence (O75533 whole entry, the tested form may be a part): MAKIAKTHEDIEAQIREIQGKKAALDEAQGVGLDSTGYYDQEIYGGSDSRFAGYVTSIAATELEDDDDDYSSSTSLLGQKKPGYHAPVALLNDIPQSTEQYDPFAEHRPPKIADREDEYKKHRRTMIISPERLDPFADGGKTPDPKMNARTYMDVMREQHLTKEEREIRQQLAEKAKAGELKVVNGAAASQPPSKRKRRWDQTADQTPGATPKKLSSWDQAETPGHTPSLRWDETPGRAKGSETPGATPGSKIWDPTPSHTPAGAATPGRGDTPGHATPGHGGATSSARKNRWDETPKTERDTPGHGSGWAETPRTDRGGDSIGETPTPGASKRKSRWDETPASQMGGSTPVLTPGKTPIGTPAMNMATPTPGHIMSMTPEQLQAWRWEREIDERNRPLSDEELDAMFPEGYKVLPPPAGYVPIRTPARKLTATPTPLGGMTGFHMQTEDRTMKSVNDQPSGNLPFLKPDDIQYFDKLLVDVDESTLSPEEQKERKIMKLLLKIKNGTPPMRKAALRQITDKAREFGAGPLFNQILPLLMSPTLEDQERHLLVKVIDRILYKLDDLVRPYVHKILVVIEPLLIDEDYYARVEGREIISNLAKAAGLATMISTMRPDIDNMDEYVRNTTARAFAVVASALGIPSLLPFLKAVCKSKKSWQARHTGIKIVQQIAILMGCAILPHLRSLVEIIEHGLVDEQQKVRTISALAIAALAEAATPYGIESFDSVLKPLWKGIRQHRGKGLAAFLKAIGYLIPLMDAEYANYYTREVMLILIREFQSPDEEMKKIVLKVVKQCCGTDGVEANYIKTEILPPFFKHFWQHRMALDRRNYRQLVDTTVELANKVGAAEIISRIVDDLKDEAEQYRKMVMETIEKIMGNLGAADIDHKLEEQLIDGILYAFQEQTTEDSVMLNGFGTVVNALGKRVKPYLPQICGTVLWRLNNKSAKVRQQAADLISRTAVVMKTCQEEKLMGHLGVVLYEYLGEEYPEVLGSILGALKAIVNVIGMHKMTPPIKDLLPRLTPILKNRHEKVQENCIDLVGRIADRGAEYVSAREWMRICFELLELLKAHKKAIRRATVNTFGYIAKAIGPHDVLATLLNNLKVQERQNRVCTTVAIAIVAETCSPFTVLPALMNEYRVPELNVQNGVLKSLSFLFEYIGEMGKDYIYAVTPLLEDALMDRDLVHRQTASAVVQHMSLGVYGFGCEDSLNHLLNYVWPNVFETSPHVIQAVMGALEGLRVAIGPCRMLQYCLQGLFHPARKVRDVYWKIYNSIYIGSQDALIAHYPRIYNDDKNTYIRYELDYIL
Splicing factor 3B subunit 1 / PHD finger-like domain-containing protein 5A, sequence (Q7RTV0 2-110 limits assumed): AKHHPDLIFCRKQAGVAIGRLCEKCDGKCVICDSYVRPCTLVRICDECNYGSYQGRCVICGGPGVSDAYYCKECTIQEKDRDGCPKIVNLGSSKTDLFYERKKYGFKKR

| Compound | EC50 [1] | EC50 [2] [nM] |
| --- | --- | --- |
| CC[C@H](O)[C@@H](C)[C@H]1O[C@@H]1C[C@@](C)(O)/C=C/C=C(\C)[C@H]1OC(=O)C[C@H](O)CC[C@@](C)(O)[C@@H](OC(C)=O)/C=C/[C@@H]1C [(3R,6R,7S,8E,10S,11S,12E,14E,16R,18R,19R,20R,21S)-7-acetoxy-3,6,16,21-tetrahydroxy-6,10,12,16,20-pentamethyl-18,19-epoxytricosa-8,12,14-triene-11-olide] | 4.3 nM | 6 |
| CC[C@H](O)[C@@H](C)[C@H]1O[C@@H]1C[C@H](C)/C=C/C=C(\C)[C@H]1OC(=O)C[C@H](O)CC[C@@](C)(O)[C@@H](OC(=O)NCCCC[C@H](NC(=O)c2ccc(C3(C(F)(F)F)N=N3)cc2)C(=O)N(C)CCN(C)C(=O)CCCC[C@H]2SC[C@H]3NC(=O)N[C@H]32)/C=C/[C@@H]1C [CID1620213] |  | 595 |
| CCNC(=O)O[C@H]1/C=C/[C@H](C)[C@@H](/C(C)=C/C=C/[C@@H](C)C[C@H]2O[C@@H]2[C@H](C)[C@@H](O)CC)OC(=O)C[C@H](O)CC[C@@]1(C)O [CID16202133] | 4.9 nM | 6.1 |
| CC[C@H](O)[C@@H](C)[C@H]1O[C@@H]1C[C@H](C)/C=C/C=C(\C)[C@H]1OC(=O)C[C@H](O)CC[C@@](C)(O)[C@@H](OC(=O)NCCOCCOCCNC(=O)CCCCC2=[N+]3C(=Cc4c(C)cc(C)n4[B-]3(F)F)C=C2)/C=C/[C@@H]1C [CID16202134] | 78.4 nM and 645 nM | 70.2 |
